Results reported in PubChem BioAssay (NCI).
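Cells were grown in 96-well plates and exposed to each compound for 48 hours at five concentrations; endpoints were interpolated linearly between bracketing concentrations, or set to the highest concentration if not reached. At the GI50, growth is halved. TGI: total growth inhibition.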

Key:
Assay in all cases: NCI anticancer screen, dose series, 48 h
SF-268 CNS = system: SF-268 CNS
M14 melanoma = system: M14 melanoma
NCI-H522 lung = system: NCI-H522 lung
NCI-H460 lung = system: NCI-H460 lung
RPMI-8226 leukemia = system: RPMI-8226 leukemia
NCI-H23 lung = system: NCI-H23 lung
OVCAR-8 ovarian = system: OVCAR-8 ovarian
SK-MEL-28 melanoma = system: SK-MEL-28 melanoma
SK-MEL-5 melanoma = system: SK-MEL-5 melanoma
T-47D breast = system: T-47D breast

Structure (SMILES)	TGI (SF-268 CNS) [µM]	TGI (M14 melanoma) [µM]	TGI (NCI-H522 lung) [µM]	TGI (NCI-H460 lung) [µM]	TGI (RPMI-8226 leukemia) [µM]	TGI (NCI-H23 lung) [µM]	TGI (OVCAR-8 ovarian) [µM]	TGI (SK-MEL-28 melanoma) [µM]	TGI (SK-MEL-5 melanoma) [µM]	GI50 (SF-268 CNS) [µM]	GI50 (M14 melanoma) [µM]	GI50 (NCI-H522 lung) [µM]	GI50 (NCI-H460 lung) [µM]	GI50 (RPMI-8226 leukemia) [µM]	GI50 (NCI-H23 lung) [µM]	GI50 (OVCAR-8 ovarian) [µM]	GI50 (T-47D breast) [µM]	TGI (T-47D breast) [µM]	GI50 (SK-MEL-5 melanoma) [µM]	GI50 (SK-MEL-28 melanoma) [µM]
CCc1ccccc1NC(=O)CCc1nc(=S)[nH][nH]1	> 100	> 100	> 100	> 100	> 100	> 100	> 100	> 100	> 100	–	–	–	–	–	–	–	–	–	–	–
CC1(C)CCSC(/C=C/c2ccccc2)=N1	80.3	27	39.8	24.6	62.6	33.9	29.8	43	28.8	–	–	–	–	–	–	–	–	–	–	–
COc1cc2c(/C=C3/C(=O)Nc4ccccc43)c(Cl)n(Cc3ccccc3)c2cc1C	> 100	> 100	> 100	> 100	> 100	> 100	> 100	–	> 100	> 100	> 100	> 100	> 100	21.1	> 100	> 100	41.9	> 100	42.2	–
COc1ccccc1NC(=O)CC(=O)n1nc(C)c(N=Nc2ccccc2F)c1C	> 93.3	> 100	> 100	> 100	> 100	> 100	> 100	> 100	> 100	–	–	–	–	–	–	–	–	–	–	–
O=C(CC(=O)Nc1ccc(Cl)cc1)NNCC(=O)Nc1nc(-c2ccccc2)cs1	> 100	> 100	> 100	> 100	> 100	> 100	> 100	> 100	> 100	–	–	–	–	–	–	–	–	–	–	–
CCNC(=O)C(O)C1(O)CCC2[C@@H]3CCC4=CC(=O)C=C[C@]4(C)C3[C@@H](O)C[C@@]21C (stereo partly specified)	> 79.9	> 100	> 100	> 100	> 100	> 100	> 100	> 100	–	–	–	–	–	–	–	–	–	–	–	–
Cc1ccccc1C(C#N)/C(=N/NC(=O)c1cc2ccccc2cc1O)C(=O)Nc1cccc(Cl)c1 (stereo unspecified)	90.3	> 100	78.3	> 100	> 100	51.2	> 100	> 100	27.4	–	–	–	–	–	–	–	–	–	–	–
COC(=O)c1nc(-c2ccc(Cl)c(Cl)c2)nc2ccccc12	> 100	> 100	> 100	> 100	> 100	> 100	> 100	> 100	> 100	–	–	–	–	–	–	–	–	–	–	–
COc1ccc2[nH]c3c(cnn4cnnc34)c2c1	> 100	> 100	> 100	> 100	> 100	> 100	> 100	> 100	> 100	–	–	–	–	–	–	–	–	–	–	–
C/C(=N\NC(=S)N(C)C)c1ncc[nH]1	> 100	5.69	9.01	> 100	> 100	5.07	> 100	> 100	–	–	–	–	–	–	–	–	–	–	–	–
CCCCCCN1C(=O)/C(=c2\sc3n(c2=O)C2C(NN=3)N(CC)C(=O)N2CC)c2ccccc21 (stereo unspecified)	–	> 50	> 50	–	> 50	> 50	> 50	> 50	> 50	–	3.24	1.45	–	2.57	2.05	1.47	1.66	> 50	3.48	2.09
CC(=O)/C=C1/c2ccccc2N(C(C)=O)C1O (stereo unspecified)	–	> 100	–	> 100	> 100	> 100	> 100	> 100	–	–	–	–	–	–	–	–	–	–	–	–
COc1ccc(/C=C/C(=O)c2ccc(Nc3ncnc4ccccc34)cc2)cc1OC	> 100	> 100	33.5	> 100	1.66	> 100	57.2	93.5	–	6.55	6.24	7.45	13	0.365	4.69	7.03	3.61	25.2	–	13.7
Clc1nc(Cl)c2ncn(C/C=C\Cn3cnc4c(Cl)nc(Cl)nc43)c2n1	5.71	4.19	4.02	11.2	–	5.11	6.39	3.68	10.5	2.24	2.15	1.76	3.24	–	2.09	2.02	0.951	2.79	2.92	1.94
CCCOc1ccc(/C=C\c2cc(OC)c(OC)c(OC)c2)cc1	> 100	> 100	> 100	> 100	> 100	–	> 100	> 100	40.7	–	–	–	–	–	–	–	–	–	–	–
Cc1cc2c(cn1)C(=O)OCC2	> 100	> 100	–	> 100	> 100	> 100	> 100	> 100	–	–	–	–	–	–	–	–	–	–	–	–
CCCOc1ccc(/C=C/c2cc(OC)c(OC)c(OC)c2)cc1	> 100	> 100	0.478	> 32.4	28.4	0.706	22.3	> 100	0.467	–	–	–	–	–	–	–	–	–	–	–
CCOC(=O)/C(C#N)=C(O)/C(=C/c1ccccc1Cl)NC(=O)c1ccccc1	> 100	> 100	> 100	> 100	55.1	> 100	> 100	> 100	> 100	–	–	–	–	–	–	–	–	–	–	–
CN1C(c2ccccc2)CC(=Nc2ccccc2)CC1c1ccccc1 (stereo unspecified)	28.7	27.9	17.4	33.9	13.7	39.9	20.6	23.2	22.8	–	–	–	–	–	–	–	–	–	–	–
COc1cc(C)cc2c1OC(c1ccccc1)CC2=O (stereo unspecified)	> 100	> 100	–	> 100	–	> 100	> 100	> 100	> 100	> 100	> 100	–	> 100	–	> 100	> 100	> 100	> 100	> 100	> 100

Structure (SMILES)	TGI (SF-268 CNS) [µM]	TGI (M14 melanoma) [µM]	TGI (NCI-H522 lung) [µM]	TGI (NCI-H460 lung) [µM]	TGI (RPMI-8226 leukemia) [µM]	TGI (NCI-H23 lung) [µM]	TGI (OVCAR-8 ovarian) [µM]	TGI (SK-MEL-28 melanoma) [µM]	TGI (SK-MEL-5 melanoma) [µM]	GI50 (SF-268 CNS) [µM]	GI50 (M14 melanoma) [µM]	GI50 (NCI-H522 lung) [µM]	GI50 (NCI-H460 lung) [µM]	GI50 (RPMI-8226 leukemia) [µM]	GI50 (NCI-H23 lung) [µM]	GI50 (OVCAR-8 ovarian) [µM]	GI50 (T-47D breast) [µM]	TGI (T-47D breast) [µM]	GI50 (SK-MEL-5 melanoma) [µM]	GI50 (SK-MEL-28 melanoma) [µM]
Nc1cc(N)c2nc(-c3ccccc3)c(Nc3ccc(F)cc3)nc2c1	41	43.3	> 100	> 100	34.6	49.1	30.3	39.3	33	13.2	16.3	> 100	26.4	4.64	22.5	12.4	–	–	14.4	20.4
CCCCCCCCCCCCCCCCC(C(=O)O)C(O)(CC(=O)O)C(=O)O (stereo unspecified)	70.3	47.7	–	46.6	74.8	64.6	> 100	59.1	> 100	–	–	–	–	–	–	–	–	–	–	–
CCCCCCn1c(-c2ccc(C(=O)O/N=C(\N)c3ccc(OC)cc3)cc2)nc(-c2ccccc2)c1-c1ccccc1	–	–	3.72	3.93	3.9	2.93	6.47	> 100	3.71	–	–	1.74	1.85	1.42	1.31	2.21	1.94	4.89	1.92	2.96
Cc1cccc(C(C)(C)C)c1NC(=O)CC1C(=O)Nc2ccccc2S1=O (stereo unspecified)	> 100	> 100	> 100	> 100	> 100	67.6	> 100	> 100	–	–	–	–	–	–	–	–	–	–	–	–
Cc1cccc(C(C)O)n1 (stereo unspecified)	> 100	> 100	> 100	> 100	–	> 100	> 100	> 100	> 100	–	–	–	–	–	–	–	–	> 100	–	–
N=C(c1ccccc1)N1CCCCC1	> 100	> 100	> 100	> 100	–	> 100	> 100	> 100	–	–	–	–	–	–	–	–	–	–	–	–
[N-]=[N+]=Nc1ncc(-c2ccc(C(F)(F)F)cc2)c(NC2CCCCCC2)n1	> 10	> 10	–	> 10	> 10	> 10	> 10	> 10	> 10	> 10	> 10	–	> 10	> 10	> 10	> 10	> 10	> 10	> 10	> 10
CC(C)=CC(=O)Cc1nc2ccccc2[nH]c1=O	> 100	> 100	–	> 100	> 100	> 100	–	> 100	> 100	–	–	–	–	–	–	–	–	–	–	–
C/C(=N\NC(N)=S)c1ccc(/C(C)=N/NC(N)=S)cc1	> 100	> 100	> 100	> 100	> 100	> 100	> 100	> 100	> 100	–	–	–	–	–	–	–	–	–	–	–
O=C1N=C2c3c(sc4c3CCCC4)N=CN2C1N=Nc1ccc(Cl)cc1 (stereo unspecified)	> 100	> 100	> 100	79.8	27.6	63.9	> 100	> 100	15	34.6	24.7	26.6	27.8	3.2	12.3	31.3	–	–	3.61	35.6
O=[N+]([O-])c1ccc(Cc2nc3ccccc3s2)cc1	> 100	> 100	> 100	> 100	> 100	> 100	> 100	> 100	> 100	–	–	–	–	–	–	–	–	–	–	–
CC1CCC2(OC1)OC1CC3C4CC=C5CC(OC6OC(CO)C(OC7OC(C)C(OC8OC(C)C(O)C(O)C8O)C(O)C7O)C(O)C6OC6OC(C)C(O)C(O)C6O)CCC5(C)C4CCC3(C)C1C2C (stereo unspecified)	2.03	2.27	2.17	3.25	–	3.13	1.59	1.85	3.06	–	–	–	–	–	–	–	–	2.89	–	–
C/C(=N\NC(N)=S)c1ccc2c(c1)OCO2	> 100	> 100	> 100	> 100	> 100	> 100	> 100	> 100	> 100	–	–	–	–	–	–	–	–	–	–	–
COc1n[n+]([O-])c(C)cc1[N+](=O)[O-]	39.4	18.3	22.7	16.4	19.1	30.3	39.5	–	24.5	18.1	4.97	8.26	3.05	2.73	14.8	13.4	–	–	11.3	–
COc1ccc(C2(CN(C)C)COc3cc(OC)c(OC)cc3C2=O)cc1OC (stereo unspecified)	> 100	> 100	> 100	> 100	63.4	94.4	> 100	> 100	60.7	–	–	–	–	–	–	–	–	–	–	–
Clc1ccc(C2=Nc3ccccc3SC(c3ccc(Cl)c(Cl)c3)C2)c(Cl)c1 (stereo unspecified)	19.9	30.1	28	34.4	6.01	34.2	31.1	30.3	32.3	–	–	–	–	–	–	–	–	–	–	–
O=S(=O)(O)C(F)(F)C(F)(F)C(F)(F)C(F)(F)F	> 100	> 100	–	> 100	> 100	> 100	> 100	–	> 100	–	–	–	–	–	–	–	–	–	–	–
Cc1cc2c(C(C)C)c(O)c(O)c3coc(/c1=c1/c(C)cc4c(C(C)C)c(=O)c(=O)c5coc1c45)c32	24.1	25.5	19	16.2	34.5	9.2	17.1	22.2	28.6	–	–	–	–	–	–	–	–	–	–	–
COc1ccc(-c2ccc(/C=N/n3cn[nH]c3=S)o2)c([N+](=O)[O-])c1	> 100	> 100	> 100	> 100	70.1	> 100	> 100	> 100	–	29.1	49	40.2	36.1	22.5	39.3	38.2	51.8	> 100	–	48.6
